Source: patent US11603356B2, “Amorphous form of a complement component C5a receptor” (CHEMOCENTRYX, INC., priority 2019, dated 2023)
In brackets after ≈: the same amount, converted by molar mass.

Legend:
[1] = Solubility in IV formulation saline/PEG400/Tween80; type: physicochemical; conditions: saline/PEG400/Tween80 (88:10:1)
Protocol: Intravenous (IV) formulations of a crystalline form of Compound 1 and the amorphous form of Compound 1 were prepared by contacting the amorphous of crystalline Compound 1 with saline/PEG400/Tween80 (88:10:1). The crystalline form of Compound 1 was prepared as described in Example 1, the amorphous form of Compound was prepared as described in Example 2, Method 1.

[2] = Kinetic solubility in 0.1 N HCl, FaSSGF and FeSSIF at 37° C.; type: physicochemical
Protocol: The in vitro solubility of a crystalline form of Compound 1 and the amorphous form of Compound 1 was tested.
The amorphous form was prepared as described in Example 2, Method 1, and the crystalline form of Compound 1 was prepared as described in Example 1.
Crystalline and amorphous forms of Compound 1 were saturated in three different media: 0.1 N HCl solution, Fasted State Simulated Gastric Fluid (FaSSGF), and Fed State Simulated Intestinal Fluid (FeSSIF). The samples were shaken inside a 37° C. water bath at 40 rpm. The concentration of Compound 1 dissolved in these samples was measured by HPLC at four different time points (0.5, 1, 2 and 4 hours).

[3] = In vivo rat PK study, oral aqueous liquid suspension formulation; conditions: oral 10 mg/kg
Protocol: An in vivo rat PK study was conducted to compare the PK profile and bioavailability of crystalline form against amorphous form of Compound 1 in an aqueous liquid suspension formulation, which contained 0.5% w/v Hydroxypropyl Cellulose (Klucel GF grade) and 0.5% w/v Poloxamer F-68 (BASF Kolliphor P188). Each animal was orally administrated 10 mg/kg of Compound 1 at 5 mL/kg dosing volume (a dosing concentration of 2 mg/mL).

[4] = suspension in 0.5% w/v Klucel GF and 0.5% w/v Poloxamer F-68, 10 mg/kg

In the case of `Cc1ccc(NC(=O)[C@H]2CCCN(C(=O)c3c(C)cccc3F)[C@H]2c2ccc(NC3CCCC3)cc2)cc1C(F)(F)F` [Crystalline Compound 1, (2R,3S)-2-(4-(cyclopentylamino)phenyl)-1-(2-fluoro-6-methylbenzoyl)-N-(4-methyl-3-(trifluoromethyl)phenyl)piperidine-3-carboxamide], the “Solubility in IV Formulation” value ([1]; 0.5 Hr.) is reported as 15.2 µg/mL (≈ 26.1 µM), the “Solubility in IV Formulation” value ([1]; 1 Hr.) is reported as 17.2 µg/mL (≈ 29.6 µM) and the “Solubility in IV Formulation” value ([1]; 2 Hr.) is reported as 20.5 µg/mL (≈ 35.2 µM). The “Solubility in IV Formulation” value ([1]; 4 Hr.) was 21.6 µg/mL (≈ 37.1 µM), the “Solubility in IV Formulation” value ([1]; 8 Hr.) was 22.0 µg/mL (≈ 37.8 µM) and the “Solubility in IV Formulation” value ([1]; 24 Hr.) was 21.9 µg/mL (≈ 37.7 µM). For the same compound, the “Solubility in IV Formulation” value ([1]; 48 Hr.) was 21.9 µg/mL (≈ 37.7 µM), the “Solubility in IV Formulation” value ([1]; 96 Hr.) was 21.6 µg/mL (≈ 37.1 µM) and the “CCX168 Solubility at 37° C.” value ([2]; 0.1N HCl (pH 1.06), 0.5 Hr.) was “ND (ND = Not Detected)”. The “CCX168 Solubility at 37° C.” value ([2]; 0.1N HCl (pH 1.06), 1 Hr.) was “ND (ND = Not Detected)”, the “CCX168 Solubility at 37° C.” value ([2]; 0.1N HCl (pH 1.06), 2 Hr.) was “ND (ND = Not Detected)” and the “CCX168 Solubility at 37° C.” value ([2]; 0.1N HCl (pH 1.06), 4 Hr.) was “ND (ND = Not Detected)”. For the same compound, the “CCX168 Solubility at 37° C.” value ([2]; FaSSGF (pH 1.64), 0.5 Hr.) was “ND (ND = Not Detected)”, the “CCX168 Solubility at 37° C.” value ([2]; FaSSGF (pH 1.64), 1 Hr.) was “ND (ND = Not Detected)” and the solubility at 2 h ([2]; Fasted State Simulated Gastric Fluid (FaSSGF), 37 °C, pH 1.64, fassgf or other biorelevant, thermodynamic from solid, FaSSGF (pH 1.64), 2 Hr., read-out: CCX168 Solubility at 37° C.) was under 3.1 µg/mL. The solubility at 4 h ([2]; Fasted State Simulated Gastric Fluid (FaSSGF), 37 °C, pH 1.64, fassgf or other biorelevant, thermodynamic from solid, FaSSGF (pH 1.64), 4 Hr., read-out: CCX168 Solubility at 37° C.) was under 3.1 µg/mL, the “CCX168 Solubility at 37° C.” value ([2]; FeSSIF (pH 4.90), 1 Hr.) was “ND (ND = Not Detected)” and the “CCX168 Solubility at 37° C.” value ([2]; FeSSIF (pH 4.90), 2 Hr.) was “ND (ND = Not Detected)”. The “CCX168 Solubility at 37° C.” value ([2]; FeSSIF (pH 4.90), 4 Hr.) was “ND (ND = Not Detected)”, the solubility at 0.5 h ([2]; Fed State Simulated Intestinal Fluid (FeSSIF), 37 °C, pH 4.9, fessif, thermodynamic from solid, FeSSIF (pH 4.90), 0.5 Hr., read-out: CCX168 Solubility at 37° C.) was under 3.1 µg/mL and the half-life ([3]; in vivo, po, 10 mg/kg, suspension in 0.5% w/v Klucel GF and 0.5% w/v Poloxamer F-68) was 3.9 h. For the same compound, the MRT ([3]; in vivo, po, 10 mg/kg, suspension in 0.5% w/v Klucel GF and 0.5% w/v Poloxamer F-68, read-out: MRT) was 6 h, the Tmax ([3]; in vivo, po, 10 mg/kg, suspension in 0.5% w/v Klucel GF and 0.5% w/v Poloxamer F-68, read-out: Tmax) was 1.5 h and the AUC0-t [3, 4] was 983 ng·h/mL. The AUCinf [3, 4] was 996 ng·h/mL and the Cmax [3, 4] was 129 ng/mL.
